From US9963461B2, “Phillygenin ibuprofen ester, preparation method therefor, and application thereof” (priority 2014, dated 2018)
Marks after values point to notes of the source that are not given here.

Tests used:
[1] = tested on: sweat secretion of rat paw part; assay: Sweat secretion of rat paw part (coloring method); assay type: in vivo, Wistar rats; conditions: 35.0 mg/kg subcutaneous; for Animal number of sweat points of level +: + = sweat area below about 10%; for Animal number of sweat points of level ++: ++ = sweat area about 11-40%; for Animal number of sweat points of level +++: +++ = sweat area about 41-70%; for Animal number of sweat points of level ++++: ++++ = sweat area over 71%; for Animal number of sweat points of level −: − = no sweat point
From the text: This test was designed to observe the change of sweat secretion based on the mechanism that sweat gland is distributed on the rat paw pads, and iodine and starch can have purple reaction when encountered with sweat. In the test, 350 Wistar rats were selected, with equal male and female number, weighing 120-150 g. […] The rats were placed in a self-made rat fixation bag, with the double hind limbs exposed. The dirts on the right paw was gently scrubbed clean with the cotton swab dipped with anhydrous ethanol. Besides that subcutaneous injection was used for the pilocarpine solution, intragastric administration was used for all the other groups. […] When the test was complete, statistical process was carried out according to the rank-sum test with two-sample comparison, in order to compare the difference between the groups.

[2] = tested on: sweat gland epithelial cells at the rat toe part; assay: Sweat secretion of rat paw part (tissue morphology observation method); assay type: in vivo, Wistar rats; conditions: rat toe part; 35.0 mg/kg subcutaneous
From the text: This test was based on the mechanism that when rat sweat gland is excited, in addition to sweat secretion increase, the morphology of sweat gland epithelial cell is also changed. The number increase and expansion of empty cells of the sweat gland epithelial cells can be seen under the optical microscope. Such enlarged vacuole presents mitochondrial in sweat gland epithelial cells swelling, rupture, fusion and secretory vesicle enlargement under the electron microscope, and through the morphological observation of the sweat gland epithelial cell at the rat paw part, the secretory activity of the sweat gland can be known. In the test, 70 Wistar rats were selected, with equal male and female number, weighing 120-160 g. […] Besides that subcutaneous injection was used for the pilocarpine solution, intragastric administration was used for all the other groups.

[3] = tested on: Enterovirus EV71; assay: Impact of the drugs on the virus-induced cytopathy (MTT); assay type: cell-based; conditions: EV71 100 TCID50, Vero cells, about the maximal non-cytotoxic concentration, 72 hours
[4] = tested on: Coxsackie virus A16 (CoxA16); assay: as above; assay type: cell-based; conditions: CoxA16 100 TCID50, Vero cells, about the maximal non-cytotoxic concentration, 72 hours
[5] = tested on: influenza virus; assay type: in vivo, Kunming mice; conditions: lung suspensions, influenza virus infected mice; 58.5 mg/kg/d, 5 days
[6] = tested on: Herpes Simplex Virus type I (HSV-1); assay: Impact of the drugs on the virus-induced cytopathy (MTT); assay type: cell-based; conditions: HSV-I 100 TCID50, Vero cells, about the maximal non-cytotoxic concentration, 72 hours
[7] = tested on: influenza virus; assay: as above; assay type: cell-based
[8] = tested on: parainfluenza virus; assay: as above; assay type: cell-based; conditions: parainfluenza virus 100 TCID50, Vero cells, about the maximal non-cytotoxic concentration, 72 hours
[9] = tested on: coxsackie virus B3 (CVB3); assay: as above; assay type: cell-based; conditions: CVB3 100 TCID50, Vero cells, about the maximal non-cytotoxic concentration, 72 hours
[10] = tested on: respiratory syncytial virus (RSV); assay: as above; assay type: cell-based; conditions: RSV 100 TCID50, Vero cells, about the maximal non-cytotoxic concentration, 72 hours
[11] = tested on: parainfluenza virus; assay type: in vivo, Kunming mice; conditions: lung suspensions, parainfluenza virus infected mice; 58.5 mg/kg/d, 5 days
[12] = tested on: Adenovirus (AdV); assay: Impact of the drugs on the virus-induced cytopathy (MTT); assay type: cell-based; conditions: ADV 100 TCID50, Vero cells, about the maximal non-cytotoxic concentration, 72 hours
[13] = tested on: mice pain induced by acetic acid; assay: Analgesic test, mice writhing induced by acetic acid; assay type: in vivo, Kunming mice; conditions: 200 mg/kg intragastric; within 15 min after 0.7% acetic acid
Method: 72 Kunming mice were randomly divided into 6 groups, with 12 mice for each group. (1) the blank normal control group (i.e. saline group, […]); (2) positive drug aspirin group (200 mg/kg); (3) ibuprofen group (300 mg/kg); (4) high dose group of phillygenin ibuprofen ester (300 mg/kg); (5) medium dose group of phillygenin ibuprofen ester (150 mg/kg); (6) low dose group of phillygenin ibuprofen ester (75 mg/kg). […] The number of mice writhings within 15 min after administration was recorded. The number of writhings was taken as the evaluation index to evaluate the analgesic effect.

[14] = tested on: rat toe swelling induced by carrageenan; assay: Rat toe swelling induced by carrageenan; assay type: in vivo, Wistar rats; conditions: 200 mg/kg sublingual intravenous injection
Method: The test groups were administered by sublingual intravenous injection. Before the test, capillary magnification measurement method was used to measure the normal volume of the right hind foot of the rats in each group. To avoid errors, the measurement location was fixed and the operation was made by one person both before and after the administration. The average value of the two measurements was taken as the normal volume of the right hind foot of the rats before administration. […] The difference between the groups was compared by inter-group t test processing through the difference percentage (swelling ratio) of the paw volume before and after the induced rat inflammation.

[15] = tested on: rabbit fever induced by typhoid and paratyphoid vaccine; assay: Rabbit fever induced by typhoid and paratyphoid vaccine; assay type: in vivo, Japanese white rabbits; conditions: 50 mg/kg
Method: Japanese male big-ear white rabbits, weighing 1.5-2.0 kg. Before the test, WSC-411P portable digital thermometer was used to measure the normal rectal temperature twice (with certain interval for each time), and the average value was taken as the normal body temperature. Then 48 Japanese big-ear white rabbits with body temperature of 38-39.6° C. were selected and randomly divided into 8 groups by weight, namely: the blank control (normal saline) group, the model control (0.5% carboxymethylcellulose) group, the ibuprofen group (300 mg/kg), the phillygenin group (10 mg/kg), the 1.25, 2.5, and 5 mg/kg phillygenin ibuprofen ester groups and the positive drug paracetamol (50 mg/kg) group. The rabbits were fixed in a fixator. The blank control group was intravenously injected with normal saline of 1 ml/kg via the ear margin; The model control group and the drug groups were intravenously injected with typhoid and paratyphoid vaccines of 0.8 ml/kg via the ear margin. When the body temperature rise of the rabbits was greater than 1° C. (requiring about 1-1.5 h, which was restricted to 1 h in this test), the blank control group and the model group were administered intragastrically with 0.5% carboxymethycellulose of 1 ml/kg, and the drug groups were administered intragastrically with phillygenin ibuprofen ester and paracetamol. […]

[16] = tested on: beer yeast induced rat fever; assay: Beer yeast induced rat fever; assay type: in vivo, Wistar rats; conditions: 100 mg/kg
Method: Male Wistar rats were selected, weighing 180-200 g. Before the test, WSC-411P portable digital thermometer was used to measure the normal rectal temperature twice (with certain interval for each time), and the average value of the two measurements was taken as the normal body temperature of the rat. Then 70 rats with the body temperature between 36.5° C. and 38° C. were chosen to be randomly divided into 7 groups by weight: the model (0.5% carboxymethylcellulose) group, the 2.5, 5, and 10 mg/kg phillygenin ibuprofen ester groups, the positive drug paracetamol (100 mg/kg) group, the ibuprofen group (i.e. prodrug control group, 300 mg/kg), the phillygenin group (100 mg/kg), with 10 rats for each group. Each group of rats were subjected to back subcutaneous injection with 10% fresh beer yeast suspension of 10 ml/kg to induce heat. After administration of 10% fresh beer yeast suspension for 6.0 h, phillygenin ibuprofen ester and paracetamol were both subjected to intragastric administration, and the model group was intragastrically administrated with equal volume of 0.5% carboxymethylcellulose. Rectal temperature was measured after 1 h, 2 h, 3 h and 4 h of the administration respectively. Changes in the body temperature were observed and difference between the groups was compared by inter-group t test processing through antipyretic percentage.

[17] = after coating B liquid for 1 minute
[18] = after coating B liquid for 5 minutes
[19] = after coating B liquid for 10 minutes
[20] = after coating B liquid for 15 minutes (Table 2-4)
[21] = after coating B liquid for 15 minutes (Table 2-5)
[22] = time after administration (min) 30
[23] = time after administration (min) 60
[24] = time after administration (min) 90
[25] = time after administration (min) 120
[26] = time after administration (min) 180

SMILES: CC[C@@H]1C(=O)OC[C@@H]1Cc1cncn1C [Pilocarpine]
- Animal number of sweat points of level + [1, 17]: 1
- Animal number of sweat points of level ++ [1, 17]: 3
- Animal number of sweat points of level +++ [1, 17]: 1
- Animal number of sweat points of level ++++ [1, 17]: 5
- Animal number of sweat points of level − [1, 17]: 0
- Animal number of sweat points of level + [1, 18]: 1
- Animal number of sweat points of level ++ [1, 18]: 2
- Animal number of sweat points of level +++ [1, 18]: 1
- Animal number of sweat points of level ++++ [1, 18]: 6
- Animal number of sweat points of level − [1, 18]: 0
- Animal number of sweat points of level + [1, 19]: 1
- Animal number of sweat points of level ++ [1, 19]: 2
- Animal number of sweat points of level +++ [1, 19]: 1
- Animal number of sweat points of level ++++ [1, 19]: 6
- Animal number of sweat points of level − [1, 19]: 0
- Animal number of sweat points of level + [1, 20]: 0
- Animal number of sweat points of level ++ [1, 20]: 2
- Animal number of sweat points of level +++ [1, 20]: 1
- Animal number of sweat points of level ++++ [1, 20]: 6
- Animal number of sweat points of level − [1, 20]: 0
- Animal number of sweat points of level + [1, 21]: 0
- Animal number of sweat points of level ++ [1, 21]: 2
- Animal number of sweat points of level +++ [1, 21]: 1
- Animal number of sweat points of level ++++ [1, 21]: 6
- Animal number of sweat points of level − [1, 21]: 0
- Number of sweat glands of vacuole [2]: 57
- Void fraction (%) [2]: 27.40*** %

SMILES: NC(=O)c1ncn([C@@H]2O[C@H](CO)[C@@H](O)[C@H]2O)n1 [Ribavirin, ribavirin]
- antiviral effective rate (ER %) [3]: 4.25%
- antiviral effective rate (ER %) [4]: 0.70%
- Hemagglutination titer (InX) [5]: 21.91 ± 1.050
- Hemagglutination titer Inhibitive rate (%) [5]: 32.39%
- antiviral effective rate (ER %) [6]: 60.92* %
- antiviral effective rate (ER %) [7]: 57.49* %
- antiviral effective rate (ER %) [8]: 81.56** %
- antiviral effective rate (ER %) [9]: 13.44%
- antiviral effective rate (ER %) [10]: 50.08* %
- Hemagglutination titer (InX) [11]: 23.22 ± 1.091
- Hemagglutination titer Inhibitive rate (%) [11]: 24.53%
- antiviral effective rate (ER %) [12]: 0.43%

SMILES: CC(=O)Oc1ccccc1C(=O)O [Aspirin]
- Writhing times [13]: 5.0*
- Swelling ratio (%) ([14]; 30 min): 0.120 ± 0.138 %
- Swelling ratio (%) ([14]; 60 min): 0.168 ± 0.172 %
- Swelling ratio (%) ([14]; 120 min): 0.215 ± 0.178 %
- Swelling ratio (%) ([14]; 180 min): 0.343 ± 0.337 %
- Swelling ratio (%) ([14]; 240 min): 0.470 ± 0.289 %
- Swelling ratio (%) ([14]; 300 min): 0.690 ± 0.369%
- Swelling ratio (%) ([14]; 360 min): 0.525 ± 0.338 %

SMILES: CC(=O)Nc1ccc(O)cc1 [Paracetamol]
- Body temperature (° C.) [15, 22]: 40.53 ± 0.68 °C
- antipyretic percentage (%) [15, 22]: −1.14 ± 0.59 %
- Body temperature (° C.) [15, 23]: 40.10 ± 0.48 °C
- antipyretic percentage (%) [15, 23]: −2.18 ± 0.16 %
- Body temperature (° C.) [15, 24]: 39.83 ± 0.57 °C
- antipyretic percentage (%) [15, 24]: −2.83 ± 0.16 %
- Body temperature (° C.) [15, 25]: 39.72 ± 0.54 °C
- antipyretic percentage (%) [15, 25]: −3.11 ± 0.29 %
- Body temperature (° C.) [15, 26]: 39.61 ± 0.48 °C
- antipyretic percentage (%) [15, 26]: −3.38 ± 0.25 %
- Body temperature (° C.) ([16]; 1 h after administration): 38.66 ± 0.58 °C
- antipyretic percentage (%) ([16]; 1 h after administration): −2.07 ± 0.54 %
- Body temperature (° C.) ([16]; 2 h after administration): 38.19 ± 0.59 °C
- antipyretic percentage (%) ([16]; 2 h after administration): −3.27 ± 0.77 %
- Body temperature (° C.) ([16]; 3 h after administration): 37.98 ± 0.19 °C
- antipyretic percentage (%) ([16]; 3 h after administration): −3.80 ± 1.43 %
- Body temperature (° C.) ([16]; 4 h after administration): 37.84 ± 0.32 °C
- antipyretic percentage (%) ([16]; 4 h after administration): −4.15 ± 1.59 %
